Tests used:
IL-12 = IL-12 levels in sera upon i.v. glycolipid administration to C57BL/6 mice (ELISA); type: in vivo; parameters: IL-12 levels, test 1 / IL-12 levels, test 2 / IL-12 levels, average / IL-12 levels, Total: unit not given here; details: for IL-12/IL-4 (B6): C57BL/6, ratio calculated from Tables 1-6; for IL-12 levels, average / IL-12 levels, test 1 / IL-12 levels, test 2 / IL-12 levels, Total: C57BL/6, serum; for IL-12 levels, Total: total over hours 0-72
Experimental: (§1) Five- to six-week-old female C57BL/6 mice and BALB/c mice were purchased from Taconic. Each glycolipid was stored at 1 mg/ml in 100% DMSO. Mice were injected intravenously with 1 μg of each glyocolipid diluted in 200 μL sterile phosphate buffered saline (PBS). At indicated time points, sera were collected from each animal, and concentrations of IFN-γ, IL-4, and IL-12 in the sera were evaluated by enzyme-linked immunosorbent assay (ELISA). Serum concentrations of IFN-γ, IL-4, and IL-12 were evaluated using an ELISA kit (eBioscience, San Diego, Calif.). Briefly, 96 well flat-bottom ELISA plates (NUNC) were coated with capture antibody according to the manufacture's recommendation and incubated overnight at 4° C. The plates were washed with PBS+0.05% Tween 20 (PBS-T), then incubated with manufacturer provided blocking solution for 1 hr at room temperature to block non-specific binding sites. After washing with PBS-T, sera diluted 1:10 was added to the wells and incubated for 2 hrs at room temperature. Plates were then incubated at room temperature for 1 hr with biotintylated detection antibody, washed, incubated with avidin conjugated to horse radish peroxidase (HRP) for 30 min at room temperature, washed, and finally incubated with tetramethylbenzidine substrate solution in the dark for 10 minutes at room temperature. The antibodies, avidin-HRP, and substrate solution were all diluted according to the manufacture's recommendation. Reactions were stopped with 2.0N sulfuric acid and the cytokine concentration in each well was determined by comparing the absorbance at 450 nm in each well to known standards. The levels of Th1- and Th2-type cytokines were determined in two different genetic backgrounds, i.e., in C57BL/6 mice and BALB/c mice. The following compounds were administered: A=compound (A-1 trans-conformer), B=compound (A-2), C=compound (A-3), D=compound (A-4), E=compound (A-5), Z=control (PBS alone), CRONY=α-C-GalCer, KRN=α-GalCer, GCK109 (A-1 trans-conformer), GCK151 (A-1 cis-conformer), GCK152 (A-7). The levels of cytokines were measured at 0, 2, 6, 12, 24, 48, and 72 hours after the compound administration. The levels of Th1-type cytokines IFN-γ and IL-12 are summarized in FIGS. 2A-C and 3A-C, respectively. Table 7 provides IFN-γ/IL-4 and IL-12/IL-4 ratios for various compounds, which can be used as indicators of their ability to selectively stimulate Th1-type immune responses.

[1] = rodents and monkeys, independently of dosage; cited from earlier work
[2] = Solubility in an aqueous solution; type: physicochemical
solid tumors = details: Phase I study; cited from earlier work
IFN-γ = IFN-γ levels in sera upon i.v. glycolipid administration to BALB/c mice (ELISA); type: in vivo; parameters: IFN-γ levels, test 1 / IFN-γ levels, test 2 / IFN-γ levels, average / IFN-γ levels, Total: unit not given here; details: BALB/c; for IFN-γ/IL-4 (BALB/c): ratio calculated from Tables 1-6; for IFN-γ levels, average / IFN-γ levels, test 1 / IFN-γ levels, test 2 / IFN-γ levels, Total: serum; for IFN-γ levels, Total: total over hours 0-72
Experimental: as §1

[3] = system: rodent malaria parasites, P. yoeli and P. berghei; details: cited from earlier work
melanoma metastases = details: in vivo administration; cited from earlier work

## CCCCCCCCCCCCCCCCCCCCCCCCCC(=O)N[C@@H](CO[C@H]1O[C@H](CO)[C@H](O)[C@H](O)[C@H]1O)[C@H](O)[C@H](O)CCCCCCCCCCCCCC [KRN, (2S,3S,4R)-1-O-(α-D-galactopyranosyl)-2-(N-hexacosanoylamino)-1,3,4-,-octadecanetriol, reference compound]
IL-12
  IL-12/IL-4 (B6): 0.3
  IL-12 levels, Total: 1440
IL-12; hour 0
  IL-12 levels, average: 5
  IL-12 levels, test 1: 5
  IL-12 levels, test 2: 5
IL-12; hour 2
  IL-12 levels, average: 0
  IL-12 levels, test 1: 0
  IL-12 levels, test 2: 0
IL-12; hour 6
  IL-12 levels, average: 1044.5
  IL-12 levels, test 1: 1116
  IL-12 levels, test 2: 973
IL-12; hour 12
  IL-12 levels, average: 195
  IL-12 levels, test 1: 174
  IL-12 levels, test 2: 216
IL-12; hour 24
  IL-12 levels, average: 0
  IL-12 levels, test 1: 0
  IL-12 levels, test 2: 0
IL-12; hour 48
  IL-12 levels, average: 61.5
  IL-12 levels, test 1: 0
  IL-12 levels, test 2: 123
IL-12; hour 72
  IL-12 levels, average: 132.5
  IL-12 levels, test 1: 101
  IL-12 levels, test 2: 164
[1]
  toxicity: does not induce toxicity
[2]
  solubility in an aqueous solution relative to the tested compounds of the invention: more soluble
Solid tumors
  effect in patients with solid tumors: little effect
IFN-γ
  IFN-γ/IL-4 (BALB/c): 10
  IFN-γ levels, Total: 21008
IFN-γ; hour 0
  IFN-γ levels, average: 27
  IFN-γ levels, test 1: 27
  IFN-γ levels, test 2: 27
IFN-γ; hour 2
  IFN-γ levels, average: 945
  IFN-γ levels, test 1: 841
  IFN-γ levels, test 2: 1049
IFN-γ; hour 6
  IFN-γ levels, average: 4752.5
  IFN-γ levels, test 1: 4170
  IFN-γ levels, test 2: 5335
IFN-γ; hour 12
  IFN-γ levels, average: 8393.5
  IFN-γ levels, test 1: 7996
  IFN-γ levels, test 2: 8791
IFN-γ; hour 24
  IFN-γ levels, average: 6740
  IFN-γ levels, test 1: 6497
  IFN-γ levels, test 2: 6983
IFN-γ; hour 48
  IFN-γ levels, average: 112.5
  IFN-γ levels, test 1: 86
  IFN-γ levels, test 2: 139
IFN-γ; hour 72
  IFN-γ levels, average: 36
  IFN-γ levels, test 1: 36
  IFN-γ levels, test 2: 36
[3]; administration to mice
  anti-malaria activity (inhibition of intra-hepatocytic stages): strong anti-malaria activity

## CCCCCCCCCCCCCCCCCCCCCCCCCC(=O)N[C@@H](CC[C@H]1O[C@H](CO)[C@H](O)[C@H](O)[C@H]1O)[C@H](O)[C@H](O)CCCCCCCCCCCCCC [CRONY, reference compound]
IL-12
  IL-12/IL-4 (B6): 2
  IL-12 levels, Total: 1379
IL-12; hour 0
  IL-12 levels, average: 5
  IL-12 levels, test 1: 5
  IL-12 levels, test 2: 5
IL-12; hour 2
  IL-12 levels, average: 107
  IL-12 levels, test 1: 0
  IL-12 levels, test 2: 214
IL-12; hour 6
  IL-12 levels, average: 472.5
  IL-12 levels, test 1: 560
  IL-12 levels, test 2: 385
IL-12; hour 12
  IL-12 levels, average: 675.5
  IL-12 levels, test 1: 630
  IL-12 levels, test 2: 721
IL-12; hour 24
  IL-12 levels, average: 117.5
  IL-12 levels, test 1: 235
  IL-12 levels, test 2: 0
IL-12; hour 48
  IL-12 levels, average: 0
  IL-12 levels, test 1: 0
  IL-12 levels, test 2: 0
IL-12; hour 72
  IL-12 levels, average: 0
  IL-12 levels, test 1: 0
  IL-12 levels, test 2: 0
Melanoma metastases
  improved activity against melanoma metastases (as compared to α-GalCer): 100 fold
IFN-γ
  IFN-γ/IL-4 (BALB/c): 34
  IFN-γ levels, Total: 19938
IFN-γ; hour 0
  IFN-γ levels, average: 27
  IFN-γ levels, test 1: 27
  IFN-γ levels, test 2: 27
IFN-γ; hour 2
  IFN-γ levels, average: 150
  IFN-γ levels, test 1: 122
  IFN-γ levels, test 2: 178
IFN-γ; hour 6
  IFN-γ levels, average: 3075.5
  IFN-γ levels, test 1: 3114
  IFN-γ levels, test 2: 3037
IFN-γ; hour 12
  IFN-γ levels, average: 5611
  IFN-γ levels, test 1: 6314
  IFN-γ levels, test 2: 4908
IFN-γ; hour 24
  IFN-γ levels, average: 10680
  IFN-γ levels, test 1: 11900
  IFN-γ levels, test 2: 9460
IFN-γ; hour 48
  IFN-γ levels, average: 334
  IFN-γ levels, test 1: 320
  IFN-γ levels, test 2: 348
IFN-γ; hour 72
  IFN-γ levels, average: 59.5
  IFN-γ levels, test 1: 50
  IFN-γ levels, test 2: 69
[3]; in vivo administration
  improved activity against malaria (as compared to α-GalCer): 1000 fold

From patent US8883745B2, “C—glycolipids with enhanced Th-1 profile” (New York University, priority 2006, dated 2014)
